This note sets out measurements from ChEMBL document CHEMBL3351664, “Acylphloroglucinol derivatives from Hypericum andinum: antidepressant-like activity of andinin A” (J Nat Prod, 2014).

The subject of data set [1] is Mus musculus. In words: Antidepressant-like activity in po dosed mouse assessed as reduction in the immobility time by forced-swimming test. Type of data set: functional, organism-based.
Data set [2] has as its system Mus musculus. Briefly: Toxicity in po dosed CF1 mouse assessed as effect on locomotor activity at 30 mg/kg, po measured after 60 mins by open-field test. Type of data set: organism-based. Details: dose 30 mg/kg, route oral. The conditions noted are these: in vivo, 1 h.

Turning to `CC(C)=CCOc1cc(O)c(C(=O)C(C)C)c(O)c1CC1=C(O)C(C)(C)C(O)=C(C(=O)C(C)C)C1=O`, the Activity result in data set [1] is “Dose-dependent effect”; in data set [2] it was “Non-toxic”.
